Experiments:
[1] = test system: total number of colonies of the Chinese tube whip shrimps; test: Total sterilization effect experiment: total number of colonies (aerobic plate count) of photodynamically treated shrimp in 4° C. storage; type: cell-based; settings: 20 μmol/L
Method: The total sterilization effect experiment and sensory evaluation of the Chinese tube whip shrimps obtained from Application Example 1, Comparative Application Example 1, and Comparative Application Example 2 were carried out. The specific steps are as follows: • (1) the Chinese tube whip shrimps obtained from Application Example 1, Comparative Application Example 1, and Comparative Application Example 2 were put into a fresh-keeping bag of a fresh-keeping box, and stored in a refrigerator at 4° C.; • (2) when stored for 2, 4, 6, 8, and 10 days, according to the method specified in the national standard GB/T 4789.2-2016 Food Microbiological Examination—Aerobic Plate Count, the total number of colonies of the Chinese tube whip shrimps treated in step (1) was measured; and • (3) when stored for 2, 4, 6, 8, and 10 days, a sensory evaluation team conducted sensory scores on the stored shrimps; the sensory score team was composed of 10 strictly trained personnel to evaluate the appearance, odor, and posture of the processed Chinese tube whip shrimps, and the average value was taken. The scoring criteria are shown in Table 1, and the sensory score result is the sum of the 3 indicator scores with a total score of 18 indicating absolute freshness and 9 indicating significant quality deterioration.
From this, it can be seen that the shelf life of refrigerated Chinese tube whip shrimp in Comparative Application Example 1 and Comparative Application Example 2 is only 4 days.

[2] = Singlet oxygen generation ability, ABDA absorbance decay method; type: physicochemical; settings: 5 μmol/L compound, 50 μmol/L ABDA, aqueous solution, blue LED 470 nm, 20 mW/cm^2, 180 s; FIG. 4

SMILES | shelf life of refrigerated Chinese tube whip shrimp ([1]; soaking 10 min, blue LED 10 W, 470 nm, 120 s, stored at 4° C., end of shelf life by total number of colonies) [days] | singlet oxygen generation ability [2] | bacterial growth (total number of colonies) ([1]; soaking 10 min, blue LED 10 W, 470 nm, 120 s, stored at 4° C. for 2-10 days, vs Comparative Application Examples 1 and 2, p<0.05, FIG. 6) | freshness level by total number of colonies ([1]; after 10 days of refrigeration at 4° C., blue LED 10 W, 470 nm, 120 s) | freshness level by total number of colonies ([1]; on the 4th day of refrigeration at 4° C., blue LED 10 W, 470 nm, 120 s) | shelf life of fresh shrimp (in words) ([1]; photodynamic treatment of Chinese tube whip shrimp, stored at 4° C.)
COc1cc(/C=C/C(=O)CC(=O)/C=C/c2ccc(O)c(OC)c2)ccc1O [natural curcumin, curcumin, reference compound] | 4 |  |  |  |  | 
COc1cc(/C=C/C=C/C(O)=C/C(=O)/C=C/c2ccc(Br)c(OC)c2)ccc1Br [Embodiment 1] |  | higher than that of the single bromine substituted curcumin derivative obtained in Embodiment 2 | significantly inhibited | approached second-level freshness | first-level freshness (the shrimp with a total number of colonies of ≤10^5 CFU/g is considered as first-level freshness) | significantly prolonged
